Tests used:
[1] = molecular target: T1, recombinant human tissue transglutaminase (rhTG2) (Homo sapiens, UniProt P21980); experiment: Inhibition of rec. human tissue transglutaminase (fluorescence, Abz-APE(CAD-DNP)QEA-OH); type: biochemical
T1 construct: purchased Zedira 1022 (so in the source); T022)
T1 sequence (P21980 1-687): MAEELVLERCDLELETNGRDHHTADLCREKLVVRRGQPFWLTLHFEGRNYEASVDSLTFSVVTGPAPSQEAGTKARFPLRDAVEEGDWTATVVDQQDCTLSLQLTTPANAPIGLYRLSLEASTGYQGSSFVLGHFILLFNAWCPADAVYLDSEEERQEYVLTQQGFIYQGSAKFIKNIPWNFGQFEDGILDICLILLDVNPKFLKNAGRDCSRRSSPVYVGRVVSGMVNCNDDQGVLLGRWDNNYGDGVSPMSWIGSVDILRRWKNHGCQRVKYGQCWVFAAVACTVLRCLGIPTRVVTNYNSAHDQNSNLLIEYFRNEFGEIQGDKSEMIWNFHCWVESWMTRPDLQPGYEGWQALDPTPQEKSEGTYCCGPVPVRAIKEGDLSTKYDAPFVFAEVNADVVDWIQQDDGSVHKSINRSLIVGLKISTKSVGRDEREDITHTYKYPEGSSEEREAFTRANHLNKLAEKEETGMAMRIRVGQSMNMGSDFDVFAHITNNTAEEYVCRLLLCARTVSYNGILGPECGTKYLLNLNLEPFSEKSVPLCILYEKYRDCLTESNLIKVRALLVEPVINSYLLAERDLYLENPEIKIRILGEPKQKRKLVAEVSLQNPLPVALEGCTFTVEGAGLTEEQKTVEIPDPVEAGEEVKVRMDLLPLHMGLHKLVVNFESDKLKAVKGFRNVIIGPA
Summary of the method: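 His6-rhTG2 in a master mix (50 mM Tris-HCl pH 7.4, 7.5 mM CaCl2, 150 mM NaCl, 5 mM DTT, 13.4 mM glycine methylester, 50 μM Abz-APE(CAD-DNP)QEA-OH) was added to serially diluted inhibitor. Fluorescence (ex 313/em 418 nm) was followed at 37 °C for 20 min. IC50 came from the 10–20 min slope relative to the 2% DMSO control.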

[2] = test system: Huh7 (human liver carcinoma cell line); experiment: Cell Proliferation ELISA, BrdU; type: cell-based; conditions: highest concentration 1 mM
Experimental: (§1) The following cell lines are used for determination of cytotoxicity: • CaCo2 (human colon carcinoma cell line) • Huh7 (human liver carcinoma cell line).
(§2) Cells are cultivated in DMEM/10% FCS at 37° C. and 5% CO2 in a 96 well plate with an initial seeding density of 2×10^4 cells/well.
(§3) Transglutaminase inhibitors are added to the cells with final concentrations from 0.1 μM to 1 mM one hour after seeding. The different inhibitor dilutions are prepared in DMSO, resulting in a final concentration of 1% (v/v) DMSO in every well (2 μl inhibitor in 200 μl cell culture medium). Cycloheximide (2.5 μg/ml) and Camptothecin (0.2 μg/ml) are used as control compounds. All measurements are performed in triplicates.
(§4) Determination of proliferation using Cell Proliferation ELISA, BrdU (Roche, Cat. No. 11647229001).
(§5) After 24 h of incubation with inhibitors or controls, BrdU is added to the cells. After further incubation for 18 h, the cells are fixed and cellular DNA becomes denatured. A monoclonal antibody (conjugated with peroxidase) raised against BrdU is added to the wells and binds to BrdU which is incorporated into the DNA. Substrate solution is added and absorbance at 450 nm is recorded. Further analysis is performed according to the manufacturer's protocol.

[3] = test system: CaCo2 (human colon carcinoma cell line); experiment: Cell Proliferation ELISA, BrdU; type: cell-based; conditions: highest concentration 1 mM
Experimental: as §1, §2, §3, §4, §5

[4] = test system: Huh7 (human liver carcinoma cell line); experiment: Metabolic activity, EZ4U-Assay; type: cell-based; conditions: highest concentration 1 mM
Experimental: as §1, §2, §3
(§6) Determination of metabolic activity using EZ4U-Assay (Biomedica, Cat. No. BI-5000).
(§7) After 48 h of incubation with inhibitors or controls, the tetrazolium substrate is added to the cells. Substrate turnover by the cells is measured over two hours at 450 nm (using 630 nm was reference wavelength).

[5] = test system: CaCo2 (human colon carcinoma cell line); experiment: Metabolic activity, EZ4U-Assay; type: cell-based; conditions: highest concentration 1 mM
Experimental: as §1, §2, §3, §6, §7

| IC50 ([1]; Table 2, TG2 inhibitors) [nM] | IC50 ([1]; Table 1, TG2 inhibitors) [nM] | Structure (SMILES) | Cytotoxicity concentration (>10% deviation from negative control), BrdU, Huh-7 [2] [mM] | Cytotoxicity concentration (>10% deviation from negative control), BrdU, Caco2 [3] [mM] | Cytotoxicity concentration (>10% deviation from negative control), EZ4U, Huh-7 [4] [mM] | Cytotoxicity concentration (>10% deviation from negative control), EZ4U, Caoo2 [5] [mM] |
| --- | --- | --- | --- | --- | --- | --- |
| 85 |  | CCCCCNC(=O)C(=O)CC[C@H](NC(=O)[C@@H]1CCCN1C(C)=O)C(=O)Nc1cccn(CC(=O)NCC(CC)CC)c1=O [Compound E22, (S)-2-((S)-1-acetylpyrrolidine-2-carboxamido)-N1-(1-(2-(2-ethylbutylamino)-2-oxoethyl)-2-oxo-1,2-dihydropyridin-3-yl)-5-oxo-N6-pentylhexanediamide] |  |  |  |  |
|  | 100 | CC(=O)N[C@@H](CCC(=O)C(N)=O)C(=O)N1CCN(c2ccccc2Cl)CC1 [Compound E06, (S)-5-acetamido-6-(4-(2-chlorophenyl)piperazin-1-yl)-2,6-dioxohexanamide] | >1 | >1 | >1 | >1 |
|  | 70 | COC(=O)[C@H](CC(C)C)NC(=O)[C@@H]1CCCN1C(=O)[C@@H](NC(=O)[C@H](CCC(=O)C(N)=O)NC(=O)OCc1ccccc1)C(C)C [Compound E02, (S)-methyl 2-((S)-1-((S)-2-((S)-6-amino-2-(benzyloxycarbonylamino)-5,6-dioxo-hexanamido)-3-methylbutanoyl)pyrrolidine-2-carboxamido)-4-methylpentanoate] | >1 | >1 | >1 | >1 |
|  | 100 | CC(=O)N1CCC[C@H]1C(=O)N[C@@H](CCC(=O)C(N)=O)C(=O)N1CCN(c2ncccc2C)CC1 [Compound E07, (S)-1-acetyl-N—((S)-6-amino-1-(4-(3-methylpyridin-2-yl)piperazin-1-yl)-1,5,6-trioxohexan-2-yl)pyrrolidine-2-carboxamide] | >1 | >1 | >1 | >1 |

— patent US11072634B2, “Inhibitors of transglutaminases” (Zedira GmbH, priority 2016, dated 2021)
